Results from BindingDB's records for doi:10.1016/j.ejmech.2014.01.032 (University of Milan, 2014).

Assay: Inhibition of acetylcholinesterase in rat brain homogenate after 15 mins by Ellman assay

SMILES | IC50
C[N+](C)(CC#CCOC1=NOCC1)CCCCCCCC[N+](C)(C)CCCN1C(=O)c2cccc3cccc(c23)C1=O | 10 µM
CC(C)(CN1C(=O)c2cccc3cccc(c23)C1=O)C[N+](C)(C)CCCCCC[N+](C)(C)CCCN1C(=O)c2ccccc2C1=O [Naphmethonium] | 41.7 µM
C[N+](C)(CC#CCOC1=NOCC1)CCCCCC[N+](C)(C)CCCN1C(=O)c2cccc3cccc(c23)C1=O | 10.2 µM
C[N+](C)(CC#CCOC1=NOCC1)CCCCCCC[N+](C)(C)CCCN1C(=O)c2ccccc2C1=O | 31.6 µM
C[N+](C)(CC#CCOC1=NOCC1)CCCCCC[N+]1(C)CCC(N2C(=O)c3cccc4cccc(c34)C2=O)CC1 (stereo unspecified) | 22.9 µM
C[N+](C)(CC#CCOC1=NOCC1)CCCCCCCC[N+](C)(C)CCCN1C(=O)c2ccccc2C1=O | 19.5 µM
